Reference: patent publication US11629143B2, “HipK4 inhibitors and uses thereof” (Vibliome Therapeutics, LLC, priority 2020, dated 2023)

Columns and labels:
Assay in all cases: Kinase panel (mobility shift)
Assay type in all cases: biochemical
LCK = LCK (Homo sapiens, UniProt P06239)
Method in brief: (§1)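 Tested at a single 5 um concentration within a 299-kinase panel, compounds were scored by electrophoretic mobility shift of a fluorescent substrate into product. Categories: A, 95% or greater; B, 90%-94%; C, 80%-89%.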

KIT = KIT (Homo sapiens, UniProt P10721)
Method in brief: as §1

MUSK = molecular target: T1, MUSK (Homo sapiens, UniProt O15146)
T1 sequence (O15146 24-869): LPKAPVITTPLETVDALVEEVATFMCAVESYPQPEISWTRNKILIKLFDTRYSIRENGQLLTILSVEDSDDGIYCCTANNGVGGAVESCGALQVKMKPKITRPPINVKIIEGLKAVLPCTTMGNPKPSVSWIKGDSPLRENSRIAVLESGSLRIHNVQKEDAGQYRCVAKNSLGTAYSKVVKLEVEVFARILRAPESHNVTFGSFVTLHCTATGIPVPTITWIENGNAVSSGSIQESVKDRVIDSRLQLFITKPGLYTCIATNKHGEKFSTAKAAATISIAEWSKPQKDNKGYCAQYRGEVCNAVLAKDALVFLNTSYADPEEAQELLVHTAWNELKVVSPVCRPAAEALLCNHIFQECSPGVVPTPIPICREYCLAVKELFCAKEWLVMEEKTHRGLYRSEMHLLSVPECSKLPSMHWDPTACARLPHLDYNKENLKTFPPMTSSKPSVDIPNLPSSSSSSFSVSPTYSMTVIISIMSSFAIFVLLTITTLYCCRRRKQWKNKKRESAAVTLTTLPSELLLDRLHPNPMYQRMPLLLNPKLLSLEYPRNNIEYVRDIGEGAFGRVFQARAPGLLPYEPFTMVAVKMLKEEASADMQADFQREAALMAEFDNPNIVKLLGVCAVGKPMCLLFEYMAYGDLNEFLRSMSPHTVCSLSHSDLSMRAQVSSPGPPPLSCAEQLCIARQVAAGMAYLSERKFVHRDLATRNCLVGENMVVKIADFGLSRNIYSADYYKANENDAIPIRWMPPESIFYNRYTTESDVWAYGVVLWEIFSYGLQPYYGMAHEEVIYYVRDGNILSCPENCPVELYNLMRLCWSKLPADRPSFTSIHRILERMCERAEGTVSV
Method in brief: as §1

AXL = molecular target: T2, AXL (Homo sapiens, UniProt P30530)
T2 sequence (P30530 26-894): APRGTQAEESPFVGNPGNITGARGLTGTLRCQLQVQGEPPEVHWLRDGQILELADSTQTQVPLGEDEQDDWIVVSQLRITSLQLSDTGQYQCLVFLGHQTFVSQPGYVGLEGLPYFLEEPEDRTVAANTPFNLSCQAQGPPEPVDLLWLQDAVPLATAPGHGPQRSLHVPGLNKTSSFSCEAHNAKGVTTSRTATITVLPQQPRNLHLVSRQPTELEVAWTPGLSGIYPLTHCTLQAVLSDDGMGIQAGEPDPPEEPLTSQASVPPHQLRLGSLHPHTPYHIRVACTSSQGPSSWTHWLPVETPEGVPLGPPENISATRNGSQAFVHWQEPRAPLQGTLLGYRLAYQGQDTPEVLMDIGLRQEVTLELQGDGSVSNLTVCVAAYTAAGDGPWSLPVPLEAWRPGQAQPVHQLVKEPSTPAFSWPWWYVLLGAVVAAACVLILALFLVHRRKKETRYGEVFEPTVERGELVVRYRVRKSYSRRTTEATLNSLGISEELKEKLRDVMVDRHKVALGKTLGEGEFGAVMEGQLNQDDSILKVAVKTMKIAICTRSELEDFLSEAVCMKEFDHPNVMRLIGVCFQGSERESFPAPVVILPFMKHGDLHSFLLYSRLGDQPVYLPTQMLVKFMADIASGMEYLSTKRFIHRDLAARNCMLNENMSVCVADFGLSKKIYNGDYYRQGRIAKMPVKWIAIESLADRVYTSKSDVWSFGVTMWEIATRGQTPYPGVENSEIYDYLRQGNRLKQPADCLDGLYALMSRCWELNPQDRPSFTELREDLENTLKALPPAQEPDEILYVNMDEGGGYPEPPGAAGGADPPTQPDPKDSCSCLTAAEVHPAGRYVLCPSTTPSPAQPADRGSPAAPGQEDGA
Method in brief: as §1

P38-a = P38-a (Homo sapiens, UniProt Q16539); details: at 5 um
Method in brief: as §1

PDGFR-b = PDGFR-b (Homo sapiens, UniProt P09619)
Method in brief: as §1

TIE2 = TIE2 (Homo sapiens, UniProt Q02763)
Method in brief: as §1

KIT, sequence (P10721 26-976, species assumed): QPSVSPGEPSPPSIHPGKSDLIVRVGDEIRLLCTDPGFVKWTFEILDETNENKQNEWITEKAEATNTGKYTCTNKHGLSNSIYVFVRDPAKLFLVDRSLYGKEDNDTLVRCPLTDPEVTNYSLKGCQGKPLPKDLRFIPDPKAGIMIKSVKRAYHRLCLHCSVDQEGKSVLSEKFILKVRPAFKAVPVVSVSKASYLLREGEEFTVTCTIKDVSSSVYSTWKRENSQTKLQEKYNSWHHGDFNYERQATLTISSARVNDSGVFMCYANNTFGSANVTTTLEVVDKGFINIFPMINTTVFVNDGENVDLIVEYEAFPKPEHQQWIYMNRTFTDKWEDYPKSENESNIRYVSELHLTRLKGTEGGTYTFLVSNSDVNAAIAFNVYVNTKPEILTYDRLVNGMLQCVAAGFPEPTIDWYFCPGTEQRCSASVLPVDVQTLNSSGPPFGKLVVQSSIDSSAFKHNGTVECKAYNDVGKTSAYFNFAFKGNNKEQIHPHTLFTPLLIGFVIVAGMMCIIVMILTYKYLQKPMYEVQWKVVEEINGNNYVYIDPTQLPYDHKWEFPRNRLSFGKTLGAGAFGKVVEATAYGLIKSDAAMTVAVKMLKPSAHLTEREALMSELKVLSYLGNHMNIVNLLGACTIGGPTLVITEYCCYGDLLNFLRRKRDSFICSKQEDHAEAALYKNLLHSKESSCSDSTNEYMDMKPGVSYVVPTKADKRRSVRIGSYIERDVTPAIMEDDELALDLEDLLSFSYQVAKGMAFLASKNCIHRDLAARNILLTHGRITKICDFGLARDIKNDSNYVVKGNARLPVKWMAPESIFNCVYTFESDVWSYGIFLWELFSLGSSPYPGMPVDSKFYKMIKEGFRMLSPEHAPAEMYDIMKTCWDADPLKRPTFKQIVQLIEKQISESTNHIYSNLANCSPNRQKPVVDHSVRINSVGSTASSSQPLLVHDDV
TIE2, sequence (Q02763 23-1124, species assumed): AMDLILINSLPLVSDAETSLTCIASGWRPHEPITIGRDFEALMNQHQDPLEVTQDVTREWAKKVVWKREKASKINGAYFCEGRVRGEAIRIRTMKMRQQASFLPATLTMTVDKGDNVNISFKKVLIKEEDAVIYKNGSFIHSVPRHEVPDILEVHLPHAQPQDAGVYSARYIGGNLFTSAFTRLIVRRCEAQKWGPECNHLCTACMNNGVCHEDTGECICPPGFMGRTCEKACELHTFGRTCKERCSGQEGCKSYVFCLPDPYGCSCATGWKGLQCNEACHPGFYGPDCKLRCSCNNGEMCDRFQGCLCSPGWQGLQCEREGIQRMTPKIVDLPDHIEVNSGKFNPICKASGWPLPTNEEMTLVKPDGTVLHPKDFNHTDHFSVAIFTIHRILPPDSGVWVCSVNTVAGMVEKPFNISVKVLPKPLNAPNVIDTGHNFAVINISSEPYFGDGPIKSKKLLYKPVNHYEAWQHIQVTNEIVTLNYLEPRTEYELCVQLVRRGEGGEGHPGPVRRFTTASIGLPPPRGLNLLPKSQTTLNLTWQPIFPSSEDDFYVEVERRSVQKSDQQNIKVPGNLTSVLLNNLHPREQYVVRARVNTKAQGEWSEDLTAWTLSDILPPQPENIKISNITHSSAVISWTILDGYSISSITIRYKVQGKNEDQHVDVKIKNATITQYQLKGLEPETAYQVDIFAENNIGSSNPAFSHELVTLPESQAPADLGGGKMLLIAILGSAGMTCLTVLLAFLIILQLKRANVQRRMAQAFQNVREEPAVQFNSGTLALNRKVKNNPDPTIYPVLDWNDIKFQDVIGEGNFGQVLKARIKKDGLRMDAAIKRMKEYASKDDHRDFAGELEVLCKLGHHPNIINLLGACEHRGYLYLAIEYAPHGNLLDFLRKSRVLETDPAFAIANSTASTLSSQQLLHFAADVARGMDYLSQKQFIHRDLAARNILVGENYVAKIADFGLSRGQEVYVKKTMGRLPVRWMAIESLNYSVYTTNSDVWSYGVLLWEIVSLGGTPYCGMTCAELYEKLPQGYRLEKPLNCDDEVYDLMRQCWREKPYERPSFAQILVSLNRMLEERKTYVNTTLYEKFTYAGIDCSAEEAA
PDGFR-b, sequence (P09619 33-1106, species assumed): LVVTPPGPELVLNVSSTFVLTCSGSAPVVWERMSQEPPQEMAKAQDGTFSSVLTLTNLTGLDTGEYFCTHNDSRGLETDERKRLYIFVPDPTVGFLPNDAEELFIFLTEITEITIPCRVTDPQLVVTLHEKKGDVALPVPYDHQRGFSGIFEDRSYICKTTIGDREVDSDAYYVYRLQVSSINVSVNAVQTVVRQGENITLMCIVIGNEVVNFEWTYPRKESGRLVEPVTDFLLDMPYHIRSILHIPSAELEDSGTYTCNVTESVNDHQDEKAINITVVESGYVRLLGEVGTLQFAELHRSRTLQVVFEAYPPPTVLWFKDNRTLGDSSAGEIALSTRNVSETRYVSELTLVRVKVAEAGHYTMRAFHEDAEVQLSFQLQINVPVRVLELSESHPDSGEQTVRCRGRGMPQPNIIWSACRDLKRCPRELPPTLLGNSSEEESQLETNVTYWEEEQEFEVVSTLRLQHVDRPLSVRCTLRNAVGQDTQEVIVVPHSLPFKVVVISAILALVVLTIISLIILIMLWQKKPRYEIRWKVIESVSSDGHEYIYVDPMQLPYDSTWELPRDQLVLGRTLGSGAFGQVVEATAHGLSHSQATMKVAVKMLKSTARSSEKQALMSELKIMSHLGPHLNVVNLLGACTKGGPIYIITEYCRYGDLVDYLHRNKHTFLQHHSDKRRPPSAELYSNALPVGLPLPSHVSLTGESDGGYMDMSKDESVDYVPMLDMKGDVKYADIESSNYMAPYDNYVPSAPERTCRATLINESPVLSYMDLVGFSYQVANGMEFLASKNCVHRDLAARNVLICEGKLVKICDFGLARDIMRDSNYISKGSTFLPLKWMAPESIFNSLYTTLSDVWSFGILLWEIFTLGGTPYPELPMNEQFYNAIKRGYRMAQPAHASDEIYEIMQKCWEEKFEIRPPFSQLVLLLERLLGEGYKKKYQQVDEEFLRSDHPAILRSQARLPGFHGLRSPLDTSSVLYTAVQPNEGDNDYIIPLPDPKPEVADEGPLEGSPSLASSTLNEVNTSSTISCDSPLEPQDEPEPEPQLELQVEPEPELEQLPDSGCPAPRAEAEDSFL
P38-a, sequence (Q16539 whole entry): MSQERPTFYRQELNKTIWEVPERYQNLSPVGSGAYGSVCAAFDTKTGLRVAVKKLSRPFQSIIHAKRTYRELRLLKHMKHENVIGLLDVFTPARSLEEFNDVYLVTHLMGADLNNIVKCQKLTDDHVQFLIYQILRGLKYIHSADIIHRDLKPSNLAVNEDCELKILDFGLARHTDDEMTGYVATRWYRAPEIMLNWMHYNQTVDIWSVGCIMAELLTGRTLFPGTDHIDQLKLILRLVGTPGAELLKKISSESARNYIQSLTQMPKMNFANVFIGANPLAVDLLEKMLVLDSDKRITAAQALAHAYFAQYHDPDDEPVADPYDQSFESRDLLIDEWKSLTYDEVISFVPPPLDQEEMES
LCK, sequence (P06239 whole entry, species assumed): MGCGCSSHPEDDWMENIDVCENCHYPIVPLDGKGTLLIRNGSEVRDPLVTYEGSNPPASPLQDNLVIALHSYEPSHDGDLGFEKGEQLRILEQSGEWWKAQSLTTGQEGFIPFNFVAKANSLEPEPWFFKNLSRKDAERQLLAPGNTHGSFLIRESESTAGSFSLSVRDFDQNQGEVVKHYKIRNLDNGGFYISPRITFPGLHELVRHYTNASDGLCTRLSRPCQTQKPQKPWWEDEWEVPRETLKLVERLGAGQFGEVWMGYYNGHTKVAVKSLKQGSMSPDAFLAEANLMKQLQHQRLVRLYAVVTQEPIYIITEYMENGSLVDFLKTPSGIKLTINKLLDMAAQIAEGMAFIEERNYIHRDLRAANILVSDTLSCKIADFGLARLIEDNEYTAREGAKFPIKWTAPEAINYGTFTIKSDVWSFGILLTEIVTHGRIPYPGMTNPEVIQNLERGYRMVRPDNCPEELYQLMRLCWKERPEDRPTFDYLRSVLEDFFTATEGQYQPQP

inhibition at 5 µM (LCK) [%] | inhibition at 5 µM (KIT) [%] | inhibition at 5 µM (MUSK) [%] | inhibition at 5 µM (AXL) [%] | inhibition of kinase activity, P38-a (P38-a) | inhibition at 5 µM (PDGFR-b) [%] | inhibition at 5 µM (TIE2) [%] | Compound
90 to 94 | 50 to 79 | 80 to 89 | 50 to 79 | B (B=90%-94% at 5 um) | < 50 | 80 to 89 | CNC(=O)c1cc(Oc2ccc(NC(=O)c3nc(C4CC4)oc3-c3ccc(F)cc3)cc2F)ccn1 [Compound 26]
< 50 | < 50 | < 50 | 50 to 79 | A (A=95% or greater at 5 um) | < 50 | < 50 | CSc1nc(C(=O)Nc2ccc(Oc3ccnc(C(=O)NC4CNC4)c3)c(F)c2)c(-c2ccc(F)cc2)o1 [Compound 29]
80 to 89 | 50 to 79 | 80 to 89 | 50 to 79 | C (C=80%-89% at 5 um) | < 50 | 80 to 89 | CNC(=O)c1cc(Oc2ccc(NC(=O)c3nc(COC)oc3-c3ccc(F)cc3)cc2F)ccn1 [Compound 30]
< 50 | < 50 | < 50 | < 50 | C (C=80%-89% at 5 um) | < 50 | < 50 | CSc1nc(C(=O)Nc2ccc(Oc3ccnc(C(=O)NC4COC4)c3)c(F)c2)c(-c2ccc(F)cc2)o1 [Compound 31]
80 to 89 | < 50 | < 50 | 80 to 89 | D (category D for 50-79) | < 50 | 50 to 79 | CNC(=O)c1cc(Oc2ccc(NC(=O)c3nc(OC4CC4)oc3-c3ccc(F)cc3)cc2F)ccn1 [Compound 32]
80 to 89 | 50 to 79 | < 50 | 50 to 79 | C (C=80%-89% at 5 um) | < 50 | 80 to 89 | CNC(=O)c1cc(Oc2ccc(NC(=O)c3nc(SC(C)C)oc3-c3ccc(F)cc3)cc2F)ccn1 [Compound 34]
50 to 79 | < 50 | < 50 | 80 to 89 | D (category D for 50-79) | < 50 | 50 to 79 | CNC(=O)c1cc(Oc2ccc(NC(=O)c3nc(OCC(F)(F)F)oc3-c3ccc(F)cc3)cc2F)ccn1 [Compound 38]
< 50 | < 50 | < 50 | < 50 | D (category D for 50-79) | < 50 | < 50 | COc1nc(C(=O)Nc2ccc(Oc3ccnc(C(=O)NC4COC4)c3)c(F)c2)c(-c2ccc(F)cc2)o1 [Compound 39]
< 50 | < 50 | < 50 | < 50 | D (category D for 50-79) | < 50 | < 50 | CSc1nc(C(=O)Nc2ccc(Oc3ccnc(C(=O)NCC(F)(F)F)c3)c(F)c2)c(-c2ccc(F)cc2)o1 [Compound 40]
50 to 79 | < 50 | < 50 | < 50 | A (A=95% or greater at 5 um) | < 50 | < 50 | CSc1nc(C(=O)Nc2ccc(Oc3ccnc(C(=O)NCCN(C)C)c3)c(F)c2)c(-c2ccc(F)cc2)o1 [Compound 41]
< 50 | < 50 | < 50 | < 50 | A (A=95% or greater at 5 um) | < 50 | < 50 | CSc1nc(C(=O)Nc2ccc(Oc3ccnc(C(=O)NC4CCN(C)CC4)c3)c(F)c2)c(-c2ccc(F)cc2)o1 [Compound 42]

Continued, compound first:

Compound | inhibition at 5 µM (LCK) [%] | inhibition at 5 µM (KIT) [%] | inhibition at 5 µM (MUSK) [%] | inhibition at 5 µM (AXL) [%] | inhibition of kinase activity, P38-a (P38-a) | inhibition at 5 µM (PDGFR-b) [%] | inhibition at 5 µM (TIE2) [%]
CSc1nc(C(=O)Nc2ccc(Oc3ccnc(C(=O)NC4CNC4)c3)c(F)c2)c(-c2ccc(F)s2)o1 [Compound 27] | < 50 | < 50 | < 50 | < 50 | D (category D for 50-79) | < 50 | < 50
CSc1nc(C(=O)Nc2ccc(Oc3ccnc(C(=O)NC4COC4)c3)c(F)c2)c(-c2ccc(F)s2)o1 [Compound 28] | < 50 | < 50 | < 50 | < 50 | E (category E is less than 50%) | < 50 | < 50
[2H]C([2H])([2H])NC(=O)c1cc(Oc2ccc(NC(=O)c3nc(SC)oc3-c3ccc(F)c(F)c3)cc2F)ccn1 [Compound 33] | 50 to 79 | < 50 | < 50 | < 50 | C (C=80%-89% at 5 um) | < 50 | < 50
[2H]C([2H])([2H])NC(=O)c1cc(Oc2ccc(NC(=O)c3nc(SC)oc3-c3ccc(F)s3)cc2F)ccn1 [Compound 35] | < 50 | < 50 | < 50 | < 50 | E (category E is less than 50%) | < 50 | < 50
CNC(=O)c1ccc(Oc2ccc(NC(=O)c3nc(Cl)oc3-c3ccc(F)cc3)c(F)c2)cn1 [Compound 36] | < 50 | < 50 | < 50 | < 50 | E (category E is less than 50%) | < 50 | < 50
CSc1nc(C(=O)Nc2ccc(Oc3ccnc(C(=O)NC4COC4)c3)c(F)c2)c(-c2ccc(F)c(F)c2)o1 [Compound 37] | < 50 | < 50 | < 50 | < 50 | C (C=80%-89% at 5 um) | < 50 | < 50
COc1nc(C(=O)Nc2ccc(Oc3ccnc(C(=O)NCC(F)(F)F)c3)c(F)c2)c(-c2ccc(F)cc2)o1 [Compound 43] | < 50 | < 50 | < 50 | < 50 | E (category E is less than 50%) | < 50 | < 50
